Our source for the mutagenic call values is PubChem BioAssay AID1259407 (Chemical Carcinogenesis Research Information System (CCRIS), 2018).

SMILES strings stand for the structures. The source made the active and inactive calls. How the calls were made is not given here.

This data set concerns CCRIS mutagenicity, Ames/micronucleus/aberration tests. The experiment in a line: CCRIS mutagenicity studies.
Where [1] appears, read: Test System: AMES SALMONELLA TYPHIMURIUM, Strain/Indicator: TA98, Metabolic Activation: RAT, LIVER, S-9, AROCLOR 1254, Method: STANDARD PLATE.
Setting [2] is: Test System: AMES SALMONELLA TYPHIMURIUM, Strain/Indicator: TA100, Metabolic Activation: NONE, Method: PREINCUBATION
Where [3] appears, read: Test System: AMES SALMONELLA TYPHIMURIUM, Strain/Indicator: TA100, Metabolic Activation: NONE, Method: STANDARD PLATE.
Setting [4] is: Test System: AMES SALMONELLA TYPHIMURIUM, Strain/Indicator: TA1535, Metabolic Activation: NONE, Method: PREINCUBATION
[5] abbreviates: Test System: AMES SALMONELLA TYPHIMURIUM, Strain/Indicator: TA1535, Metabolic Activation: RAT, LIVER, S-9, AROCLOR 1254, Method: STANDARD PLATE.

In the case of `COc1cc(-c2ccc(N)c(OC)c2)ccc1N`, the mutagenic call is “active; positive (structural changes); precipitation of test chemical observed above 0.6” (End Point: IN VITRO CHROMOSOMAL ABERRATIONS, Test System: CHL CELLS, Metabolic Activation: RAT, LIVER, S-9, SODIUM PHENOBARBITAL AND 5,6-BENZOFLAVONE); “inactive; negative” (Test System: AMES SALMONELLA TYPHIMURIUM, Strain/Indicator: SV50, Metabolic Activation: NONE, Method: PREINCUBATION (PRIVAL METHOD)); “inactive; negative” (Test System: AMES SALMONELLA TYPHIMURIUM, Strain/Indicator: SV50, Metabolic Activation: RAT, LIVER, S-9, AROCLOR 1254, Method: STANDARD PLATE); “inactive; negative” (Test System: AMES SALMONELLA TYPHIMURIUM, Strain/Indicator: TA98(1,8-DNP6), Metabolic Activation: NONE, Method: STANDARD PLATE); “active; positive” (Test System: AMES SALMONELLA TYPHIMURIUM, Strain/Indicator: TA98(1,8-DNP6), Metabolic Activation: S-9, Method: STANDARD PLATE); “active; positive” (Test System: AMES SALMONELLA TYPHIMURIUM, Strain/Indicator: TA98, Metabolic Activation: HAMSTER, LIVER, S-9, AROCLOR 1254, Method: PREINCUBATION). Moreover, the mutagenic call by setting is: (Test System: AMES SALMONELLA TYPHIMURIUM, Strain/Indicator: TA98, Metabolic Activation: HAMSTER, LIVER, S-9, Method: PREINCUBATION (PRIVAL METHOD)) “inactive; negative”; (Test System: AMES SALMONELLA TYPHIMURIUM, Strain/Indicator: TA98, Metabolic Activation: RAT LIVER S-9, AROCLOR 1254, Method: PREINCUBATION) “active; positive”; (Test System: AMES SALMONELLA TYPHIMURIUM, Strain/Indicator: TA98, Metabolic Activation: RAT LIVER S-9, PHENOBARBITAL AND BETA-NAPHTHOFLAVONE, Method: PREINCUBATION) “active; positive”; (Test System: AMES SALMONELLA TYPHIMURIUM, Strain/Indicator: TA98, Metabolic Activation: RAT, LIVER, S-9, AROCLOR 1254, Method: PREINCUBATION) “active; positive”; under setting [1], “active; positive”; (Test System: AMES SALMONELLA TYPHIMURIUM, Strain/Indicator: TA98, Metabolic Activation: RAT, LIVER, S-9, PCB, Method: PREINCUBATION) “active; positive”. The mutagenic call by setting is: (Test System: AMES SALMONELLA TYPHIMURIUM, Strain/Indicator: TA98, Metabolic Activation: S-9, Method: STANDARD PLATE) “active; positive”; (Test System: AMES SALMONELLA TYPHIMURIUM, Strain/Indicator: TA100, Metabolic Activation: HAMSTER, LIVER, S-9, AROCLOR 1254, Method: PREINCUBATION) “inactive; negative”; under setting [2], “inactive; negative”; under setting [3], “inactive; negative”; (Test System: AMES SALMONELLA TYPHIMURIUM, Strain/Indicator: TA100, Metabolic Activation: RAT LIVER S-9, AROCLOR 1254, Method: PREINCUBATION) “active; positive”; (Test System: AMES SALMONELLA TYPHIMURIUM, Strain/Indicator: TA100, Metabolic Activation: RAT LIVER S-9, PHENOBARBITAL AND BETA-NAPHTHOFLAVONE, Method: PREINCUBATION) “inactive; negative”. The mutagenic call is, setting by setting: (Test System: AMES SALMONELLA TYPHIMURIUM, Strain/Indicator: TA100, Metabolic Activation: RAT, LIVER, S-9, AROCLOR 1254, Method: PREINCUBATION) “active; positive”; (Test System: AMES SALMONELLA TYPHIMURIUM, Strain/Indicator: TA100, Metabolic Activation: RAT, LIVER, S-9, PCB, Method: PREINCUBATION) “active; positive”; (Test System: AMES SALMONELLA TYPHIMURIUM, Strain/Indicator: TA100, Metabolic Activation: S-9, Method: STANDARD PLATE) “inactive; negative”; under setting [4], “inactive; negative”; (Test System: AMES SALMONELLA TYPHIMURIUM, Strain/Indicator: TA1535, Metabolic Activation: RAT, LIVER, S-9, AROCLOR 1254, Method: PREINCUBATION) “inactive; negative”; under setting [5], “active; positive”. The mutagenic call is “inactive; negative” (Test System: AMES SALMONELLA TYPHIMURIUM, Strain/Indicator: TA1537, Metabolic Activation: HAMSTER, LIVER, S-9, AROCLOR 1254, Method: PREINCUBATION); “inactive; negative” (Test System: AMES SALMONELLA TYPHIMURIUM, Strain/Indicator: TA1537, Metabolic Activation: NONE, Method: PREINCUBATION); “inactive; negative” (Test System: AMES SALMONELLA TYPHIMURIUM, Strain/Indicator: TA1537, Metabolic Activation: RAT LIVER S-9, PHENOBARBITAL AND BETA-NAPHTHOFLAVONE, Method: PREINCUBATION); “inactive; negative” (Test System: AMES SALMONELLA TYPHIMURIUM, Strain/Indicator: TA1537, Metabolic Activation: RAT, LIVER, S-9, AROCLOR 1254, Method: PREINCUBATION); “active; positive” (Test System: AMES SALMONELLA TYPHIMURIUM, Strain/Indicator: TA1538, Metabolic Activation: HAMSTER, LIVER, S-9, Method: STANDARD PLATE); “active; positive” (Test System: AMES SALMONELLA TYPHIMURIUM, Strain/Indicator: TA1538, Metabolic Activation: RAT, LIVER, S-9, AROCLOR 1254, Method: STANDARD PLATE). In addition, the mutagenic call was “active; positive” (Test System: AMES SALMONELLA TYPHIMURIUM, Strain/Indicator: TA1538, Metabolic Activation: RAT, LIVER, S-9, PHENOBARBITAL, Method: STANDARD PLATE); “active; positive, test conducted under both aerobic and anaerobic conditions” (Test System: Ames Salmonella typhimurium, Strain/Indicator: TA98, Metabolic Activation: Rat, Liver, S-9, Sodium phenobarbitone, Method: Preincubation); “inactive; negative” (Test System: Ames Salmonella typhimurium, Strain/Indicator: TA102, Metabolic Activation: None, Method: Preincubation); “active; positive” (Test System: Ames Salmonella typhimurium, Strain/Indicator: TA102, Metabolic Activation: Rat, Liver, S-9, Aroclor 1254, 4%, Method: Preincubation); “active; positive, test conducted under both aerobic and anaerobic conditions” (Test System: Ames Salmonella typhimurium, Strain/Indicator: TA1538, Metabolic Activation: Rat, Liver, S-9, Sodium phenobarbitone, Method: Preincubation); “active; positive” (Test System: MOUSE LYMPHOMA, Strain/Indicator: L5178Y (TK+/TK-), Metabolic Activation: NONE, Method: SUSPENSION/PLATE). Moreover, the mutagenic call is, setting by setting: (Test System: MOUSE LYMPHOMA, Strain/Indicator: L5178Y (TK+/TK-), Metabolic Activation: RAT, LIVER, S-9, AROCLOR 1254, Method: SUSPENSION/PLATE) “active; positive”; (Test System: UDS HUMAN CELLS, Strain/Indicator: THY INCORP (NON-S-PHASE), Metabolic Activation: RAT, LIVER, S-9, PHENOBARBITAL, Method: LIQUID SCINTILLATION COUNTING) “active; positive”.

For the compound `CCOC(=O)N(CCC=O)N=O`, the mutagenic call is “active; positive” under setting [2]; “active; positive” (Test System: AMES SALMONELLA TYPHIMURIUM, Strain/Indicator: TA104, Metabolic Activation: NONE, Method: PREINCUBATION); “active; positive” under setting [4].

Consider `CC(C)NCC(=O)NC(=O)C=[N+]=[N-]`, for which the mutagenic call (Test System: UDS RODENT CELLS, Strain/Indicator: THY INCORP (NON-S-PHASE), Metabolic Activation: NONE, Method: AUTORADIOGRAPHY) is “active; positive”.

On to `O=C1NCCN1/N=C/c1ccc([N+](=O)[O-])o1`, for which the mutagenic call is “active; positive” (Test System: AMES SALMONELLA TYPHIMURIUM, Strain/Indicator: TA98, Metabolic Activation: NONE); “inactive; negative” (Test System: AMES SALMONELLA TYPHIMURIUM, Strain/Indicator: TA98, Metabolic Activation: S-9); “active; positive” (Test System: AMES SALMONELLA TYPHIMURIUM, Strain/Indicator: TA100, Metabolic Activation: NONE); “active; positive” (Test System: AMES SALMONELLA TYPHIMURIUM, Strain/Indicator: TA100, Metabolic Activation: S-9).

Consider `C1CCCCCC2OC2CCCC1` (configuration not stated), for which the mutagenic call was “inactive; negative” under setting [3]; “inactive; negative” (Test System: AMES SALMONELLA TYPHIMURIUM, Strain/Indicator: TA100, Metabolic Activation: RAT, LIVER, S-9, AROCLOR 1254, Method: STANDARD PLATE); “inactive; negative” (Test System: AMES SALMONELLA TYPHIMURIUM, Strain/Indicator: TA1535, Metabolic Activation: NONE, Method: STANDARD PLATE); “inactive; negative” under setting [5]; “inactive; negative” (Test System: UDS RAT HEPATOCYTES, Strain/Indicator: THY INCORP, Metabolic Activation: NONE).

On to `Cc1cnc2cc(C)c3c(nc(N)n3C)c2n1`, for which, under setting [1], the mutagenic call is “active; positive”.
